Laboratory results from the supplement of paper PMC10307832.

Tests used:
Test in all cases: relative viability (nuclei count vs DMSO), 5 days (fraction); higher = more cells survive
[1] = system: NCI-H1793
Procedure, shortened: (§1)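 Relative viability is defined as nuclei in treated wells over nuclei in vehicle wells. Duplicate plates were run and medians reported. Lung cancer cell lines in 1536-well plates were dosed by pin tool one day after seeding, with one drug or with a fixed anchor-drug dose plus five library-drug doses (not always all listed) in √10 steps, and nuclei were counted after 5 days.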

[2] = system: HCC-78
Procedure, shortened: as §1

[3] = system: LCLC-97TM1
Procedure, shortened: as §1

[4] = system: NCI-H2126
Procedure, shortened: as §1

[5] = system: NCI-H2347
Procedure, shortened: as §1

[6] = system: NCI-H441
Procedure, shortened: as §1

[7] = system: NCI-H838
Procedure, shortened: as §1

[8] = system: CAL-12T
Procedure, shortened: as §1

[9] = system: SW 1573
Procedure, shortened: as §1

[10] = system: NCI-H3122
Procedure, shortened: as §1

[11] = system: SK-LU-1
Procedure, shortened: as §1

[12] = system: NCI-H1915
Procedure, shortened: as §1

Compound Cc1csc(=NC2CCCCC2)n1/N=C/c1ccc(O)c(O)c1O [MIM1] + COc1cccc2cc(-c3nc([C@H]4CC[C@H](C(=O)O)CC4)n4ncnc(N)c34)[nH]c12 [OSI-027] (partner 0.5 µM) has a relative viability ([1]; first compound 2 µM) of 0.247, a relative viability ([1]; first compound 6.325 µM) of 0.256 and a relative viability ([1]; first compound 20 µM) of 0.287. For the same compound, the relative viability ([2]; first compound 0.2 µM) was 0.365, the relative viability ([2]; first compound 0.6325 µM) was 0.356 and the relative viability ([2]; first compound 2 µM) was 0.303. For the same compound, the relative viability ([2]; first compound 6.325 µM) was 0.384, the relative viability ([2]; first compound 20 µM) was 0.468 and the relative viability ([3]; first compound 0.2 µM) was 0.437. The relative viability ([3]; first compound 0.6325 µM) was 0.455, the relative viability ([3]; first compound 2 µM) was 0.508 and the relative viability ([3]; first compound 6.325 µM) was 0.503. For the same compound, the relative viability ([3]; first compound 20 µM) was 0.193, the relative viability ([4]; first compound 0.2 µM) was 0.758 and the relative viability ([4]; first compound 0.6325 µM) was 0.672. It also gave a relative viability ([4]; first compound 2 µM) of 0.732, a relative viability ([4]; first compound 6.325 µM) of 0.657 and a relative viability ([4]; first compound 20 µM) of 0.466. For the same compound, the relative viability ([5]; first compound 0.2 µM) was 0.41, the relative viability ([5]; first compound 0.6325 µM) was 0.449 and the relative viability ([5]; first compound 2 µM) was 0.437. For the same compound, the relative viability ([5]; first compound 6.325 µM) was 0.392, the relative viability ([5]; first compound 20 µM) was 0.287 and the relative viability ([6]; first compound 0.2 µM) was 0.575. The relative viability ([6]; first compound 2 µM) was 0.625, the relative viability ([6]; first compound 6.325 µM) was 0.472 and the relative viability ([6]; first compound 20 µM) was 0.191. The relative viability ([7]; first compound 0.2 µM) was 0.469, the relative viability ([7]; first compound 0.6325 µM) was 0.428 and the relative viability ([7]; first compound 2 µM) was 0.397. The relative viability ([7]; first compound 6.325 µM) was 0.373, the relative viability ([7]; first compound 20 µM) was 0.169 and the relative viability ([8]; first compound 0.2 µM) was 0.607. For the same compound, the relative viability ([8]; first compound 0.6325 µM) was 0.579, the relative viability ([8]; first compound 2 µM) was 0.57 and the relative viability ([8]; first compound 6.325 µM) was 0.445. The relative viability ([8]; first compound 20 µM) was 0.143, the relative viability ([9]; first compound 0.2 µM) was 0.689 and the relative viability ([9]; first compound 0.6325 µM) was 0.724. For the same compound, the relative viability ([9]; first compound 2 µM) was 0.544, the relative viability ([9]; first compound 6.325 µM) was 0.46 and the relative viability ([9]; first compound 20 µM) was 0.0875. The relative viability ([10]; first compound 0.2 µM) was 1.04, the relative viability ([10]; first compound 0.6325 µM) was 1.11 and the relative viability ([10]; first compound 2 µM) was 0.904. For the same compound, the relative viability ([10]; first compound 6.325 µM) was 0.398, the relative viability ([10]; first compound 20 µM) was 0.175 and the relative viability ([11]; first compound 0.2 µM) was 0.394. The relative viability ([11]; first compound 0.6325 µM) was 0.389, the relative viability ([11]; first compound 2 µM) was 0.41 and the relative viability ([11]; first compound 6.325 µM) was 0.316. It also gave a relative viability ([11]; first compound 20 µM) of 0.325, a relative viability ([12]; first compound 0.2 µM) of 0.669 and a relative viability ([12]; first compound 0.6325 µM) of 0.495. The relative viability ([12]; first compound 2 µM) was 0.609, the relative viability ([12]; first compound 6.325 µM) was 0.49 and the relative viability ([12]; first compound 20 µM) was 0.232.
